The results in this text go back to patent publication US20250236627A1, “CERTAIN OCTAHYDROFURO[3,4- B]PYRAZINES AS GLP-1 RECEPTOR MODULATORS” (ASTRAZENECA AB, priority 2021, published 2025).

Bounds are passed on as bounds.

Assay [1] has as its target T1, human GLP-1R receptor (Homo sapiens, UniProt P43220, L260F).
T1 construct: expressed in transfected cells; host or cells: CHO-K1 (ATCC CCL-61)
Put plainly: CHOK1 GLP-1R cAMP Assay. The format is cell-based. As to conditions: CHO-K1 cell line stably expressing human GLP-1R; HTRF cAMP detection. In short, it runs like this: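 CHO-K1 cells, 800/well, stimulated 20 min at room temperature with compound in HEPES pH 7.4/HBSS/0.1% BSA plus IBMX (1 mM in the added buffer). cAMP measured by HTRF competitive immunoassay after ≥1 h, converted to pM via standard curve. EC50 from 4-parameter logistic fit; % effect relative to saturating GLP1(7-36)NH2.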
Background: TR-FRET usually uses a lanthanide donor and a delayed reading to cut background.

Assay [2] concerns the target T2, endogenous human glucagon-like peptide 1 receptor (GLP-1R) (Homo sapiens, UniProt P43220).
T2 construct: endogenous human glucagon-like peptide 1 receptor (GLP-1R) in a pancreatic insulinoma cell line; host or cells: EndoC-βH1 human pancreatic β cell line
Put plainly: EndoC cAMP Accumulation Assay. The format is cell-based. As to conditions: EndoC-βH1 human pancreatic β cell line; HTRF cAMP assay. A digest of the protocol: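 Thawed EndoC-βH1 cells (3000 per well) were stimulated for 30 min at room temperature in HBSS/25 mM HEPES pH 7.4, 0.1% BSA and 0.5 mM IBMX. cAMP was measured by HTRF competitive immunoassay after 1 h. Responses were fitted by 4-parameter logistic as % activation relative to maximal GIP (82.5 nM), with basal cAMP as zero.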

For assay [3], the target named is T3, human phosphodiesterase-3A (Homo sapiens, UniProt Q14432).
T3 construct: host or cells: Sf9 cells
T3 sequence (Q14432 whole entry): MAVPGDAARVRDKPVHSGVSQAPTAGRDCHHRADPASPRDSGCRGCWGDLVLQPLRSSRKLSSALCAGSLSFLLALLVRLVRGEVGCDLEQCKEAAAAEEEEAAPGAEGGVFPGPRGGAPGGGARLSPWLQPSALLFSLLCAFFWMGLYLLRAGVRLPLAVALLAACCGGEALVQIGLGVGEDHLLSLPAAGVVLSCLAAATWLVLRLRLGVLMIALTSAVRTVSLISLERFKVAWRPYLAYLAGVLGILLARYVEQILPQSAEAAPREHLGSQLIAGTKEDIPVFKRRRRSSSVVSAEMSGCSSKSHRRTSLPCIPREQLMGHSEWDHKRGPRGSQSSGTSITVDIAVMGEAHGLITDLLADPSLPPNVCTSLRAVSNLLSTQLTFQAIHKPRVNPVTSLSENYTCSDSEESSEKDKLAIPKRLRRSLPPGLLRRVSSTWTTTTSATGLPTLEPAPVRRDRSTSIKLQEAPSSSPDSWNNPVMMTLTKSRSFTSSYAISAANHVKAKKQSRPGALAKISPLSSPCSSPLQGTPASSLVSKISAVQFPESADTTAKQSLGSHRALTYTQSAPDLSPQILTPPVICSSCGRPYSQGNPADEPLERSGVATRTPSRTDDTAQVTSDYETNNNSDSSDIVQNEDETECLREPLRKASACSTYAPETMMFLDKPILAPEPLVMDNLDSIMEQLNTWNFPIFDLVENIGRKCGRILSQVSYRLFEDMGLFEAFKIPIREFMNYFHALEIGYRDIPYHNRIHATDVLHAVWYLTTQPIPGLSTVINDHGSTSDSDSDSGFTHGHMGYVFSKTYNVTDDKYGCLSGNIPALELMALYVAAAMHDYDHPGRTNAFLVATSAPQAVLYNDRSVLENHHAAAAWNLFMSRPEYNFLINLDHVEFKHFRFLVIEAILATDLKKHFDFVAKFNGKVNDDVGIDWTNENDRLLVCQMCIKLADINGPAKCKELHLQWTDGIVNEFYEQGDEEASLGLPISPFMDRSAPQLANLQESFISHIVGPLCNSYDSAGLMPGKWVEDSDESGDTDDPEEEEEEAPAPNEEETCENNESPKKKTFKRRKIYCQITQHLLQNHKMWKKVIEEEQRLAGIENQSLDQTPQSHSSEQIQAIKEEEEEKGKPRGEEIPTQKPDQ
Put plainly: PDE3 Assay. The following applies: human recombinant enzyme expressed in Sf9 cells; formation of 5′AMP from cAMP. The format is biochemical. As for the experimental part: Evaluation of the effects of compounds on the activity of the human phosphodiesterase-3A is quantified by measuring the formation of 5′AMP from cAMP using a human recombinant enzyme expressed in Sf9 cells.
The test compound, reference compound or water (control) are added to a buffer containing 40 mM Tris/HCl (pH 7.4) and 8 mM MgCl2, 450 nM cAMP and 0.25 μCi [^3H]cAMP.
Thereafter, the reaction is initiated by addition of the enzyme (about 1 U) and the mixture is incubated for 20 min at 22° C.
For basal control measurements, the enzyme is omitted from the reaction mixture.
Following incubation SPA beads are added. After 30 min at 22° C. under shaking, the amount of [^3H]5′AMP is quantified with a scintillation counter (Topcount, Packard).
The results are expressed as a percent inhibition of the control enzyme activity. The standard inhibitory reference compound is milrinone (CAS number 78415-72-2), which is tested in each experiment at several concentrations to obtain an inhibition curve from which its IC50 value is calculated.

What is called EC50 is the concentration at which the effect is half-maximal. Usually IC50 stands for the concentration needed to halve the response being measured.

T1 sequence (P43220 24-463 L260F): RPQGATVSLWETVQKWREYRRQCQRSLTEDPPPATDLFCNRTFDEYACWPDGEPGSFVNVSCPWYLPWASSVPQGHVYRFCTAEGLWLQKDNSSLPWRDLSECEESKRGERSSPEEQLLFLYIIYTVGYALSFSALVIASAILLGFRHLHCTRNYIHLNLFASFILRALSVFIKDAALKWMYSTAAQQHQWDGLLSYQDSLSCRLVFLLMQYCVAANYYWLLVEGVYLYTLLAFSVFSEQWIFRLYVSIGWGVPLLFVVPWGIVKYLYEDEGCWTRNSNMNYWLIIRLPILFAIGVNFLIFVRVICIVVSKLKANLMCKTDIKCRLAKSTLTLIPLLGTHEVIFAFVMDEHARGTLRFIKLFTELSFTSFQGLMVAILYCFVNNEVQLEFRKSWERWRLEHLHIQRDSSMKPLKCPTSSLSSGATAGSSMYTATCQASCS
T2 sequence (P43220 24-463): as the sequence (P43220 24-463 L260F) above, with F237L counted along it

`C[C@]1(c2ccc(Cl)cn2)Oc2cccc(N3CCN(Cc4nc5ccc(C(=O)O)cc5n4C[C@@H]4CCO4)[C@H]4COC[C@H]43)c2O1` (single isomer, unassigned) [Example 5b, 2-(((4aR*,7aS*)-4-((R*)-2-(5-Chloropyridin-2-yl)-2-methylbenzo[d][1,3]dioxol-4-yl)hexahydrofuro[3,4-b]pyrazin-1(2H)-yl)methyl)-1-(((S)-oxetan-2-yl)methyl)-1H-benzo[d]imidazole-6-carboxylic acid]: the EC50 turned out to be 2.2 nM in assay [1] and 9.5 nM in assay [2]. The 50% inhibitory concentration (IC50) in assay [3] was more than 100000 nM.
In the case of `C[C@]1(c2ccc(Cl)cc2F)Oc2cccc(N3CCN(Cc4nc5ccc(C(=O)O)cc5n4C[C@@H]4CCO4)[C@H]4COC[C@H]43)c2O1` (single isomer, unassigned) [Example 6a, 2-(((4aR*,7aS*)-4-((R*)-2-(4-Chloro-2-fluorophenyl)-2-methylbenzo[d][1,3]dioxol-4-yl)hexahydrofuro[3,4-b]pyrazin-1(2H)-yl)methyl)-1-(((S)-oxetan-2-yl)methyl)-1H-benzo[d]imidazole-6-carboxylic acid], the values for the EC50 in assay [1] and in assay [2] were 1.5 nM and 0.92 nM, respectively. In addition, the IC50 in assay [3] was more than 100000 nM.
For `C[C@]1(c2ccc(Cl)cn2)Oc2cccc(N3CCN(Cc4nc5ccc(C(=O)O)cc5n4C[C@@H]4CCCO4)[C@H]4COC[C@H]43)c2O1` (single isomer, unassigned) [Example 8a, 2-(((4aR*,7aS*)-4-((R*)-2-(5-Chloropyridin-2-yl)-2-methylbenzo[d][1,3]dioxol-4-yl)hexahydrofuro[3,4-b]pyrazin-1(2H)-yl)methyl)-1-(((S)-tetrahydrofuran-2-yl)methyl)-1H-benzo[d]imidazole-6-carboxylic acid], the figures for the EC50 in assay [1] and in assay [2] were 15 nM and 17 nM, respectively. Also, in assay [3], the IC50 was more than 100000 nM.
Turning to `C[C@]1(c2ccc(Cl)cn2)Oc2cccc(N3CCN(Cc4nc5c(F)cc(C(=O)O)cc5n4C[C@@H]4CCO4)[C@H]4COC[C@H]43)c2O1` (single isomer, unassigned) [Example 9a, 2-(((4aR*,7aS*)-4-((R*)-2-(5-Chloropyridin-2-yl)-2-methylbenzo[d][1,3]dioxol-4-yl)hexahydrofuro[3,4-b]pyrazin-1(2H)-yl)methyl)-4-fluoro-1-(((S)-oxetan-2-yl)methyl)-1H-benzo[d]imidazole-6-carboxylic acid], the results for the EC50 in assay [1] and in assay [2] were 1.5 nM and 3.9 nM, respectively. The IC50 in assay [3] was more than 100000 nM.
Turning to `C[C@]1(c2ccc(Cl)cn2)Oc2cccc(N3CCN(Cc4nc5c(F)cc(C(=O)O)cc5n4C[C@@H]4CCO4)[C@H]4COC[C@H]43)c2O1` (single isomer, unassigned) [Example 9d, 2-(((4aR*,7aS*)-4-((R*)-2-(5-Chloropyridin-2-yl)-2-methylbenzo[d][1,3]dioxol-4-yl)hexahydrofuro[3,4-b]pyrazin-1(2H)-yl)methyl)-4-fluoro-1-(((S)-oxetan-2-yl)methyl)-1H-benzo[d]imidazole-6-carboxylic acid], the results for the 50% effective concentration (EC50) in assay [1] and in assay [2] were 320 nM and 2100 nM, respectively. The IC50 in assay [3] is more than 100000 nM.
Consider `C[C@]1(c2ccc(Cl)cn2)Oc2cccc(N3CCN(Cc4nc5c(F)cc(C(=O)O)cc5n4CC4(CC#N)CC4)[C@H]4COC[C@H]43)c2O1` (single isomer, unassigned) [Example 21], for which the concentration for a half-maximal effect (EC50) in assay [1] and in assay [2] was 3 nM each time. Besides, in assay [3], the IC50 was more than 100000 nM.
For the molecule `C[C@]1(c2ccc(Cl)cn2)Oc2cccc(N3CCN(Cc4nc5c(F)cc(C(=O)O)cc5n4CC4(C#N)CC4)[C@H]4COC[C@H]43)c2O1` (single isomer, unassigned) [Example 22a], the EC50 in assay [1] turned out to be 2.7 nM; in assay [2] it was 3.2 nM. The IC50 in assay [3] is more than 100000 nM.
Regarding `C[C@]1(c2ccc(Cl)cn2)Oc2cccc(N3CCN(Cc4nc5c(Cl)cc(C(=O)O)cc5n4CC4(C#N)CC4)[C@H]4COC[C@H]43)c2O1` (single isomer, unassigned) [Example 23a], the concentration giving a half-maximal response (EC50) in assay [1] came out at 1.8 nM; in assay [2], 5 nM. Further, the half-inhibitory concentration (IC50) in assay [3] is more than 100000 nM.
As for `C[C@]1(c2ccc(Cl)cn2)Oc2cccc(N3CCN(Cc4nc5ccc(C(=O)O)cc5n4CC4(CC#N)CC4)[C@H]4COC[C@H]43)c2O1` (single isomer, unassigned) [Example 25], the half-maximal effective concentration (EC50) in assay [1] is 5.1 nM; in assay [2] it was 8 nM. Moreover, in assay [3], the IC50 is more than 100000 nM.
